Laboratory results reported in patent US20150148256A1, “BIOLUMINESCENCE IMAGING-BASED SCREENING ASSAY AND INHIBITORS OF ABCG2” (THE JOHNS HOPKINS UNIVERSITY, priority 2008, published 2015).
Counter-ions that a name gives are not always drawn. Like-named read-outs stand apart in the source and are kept apart here.

Legend:
[1] = molecular target: T1, ABCG2 (Homo sapiens, UniProt Q9UNQ0); assay: Bioluminescence imaging (BLI) assay in HEK293/ABCG2/fLuc cells
T1 sequence (Q9UNQ0 1-655): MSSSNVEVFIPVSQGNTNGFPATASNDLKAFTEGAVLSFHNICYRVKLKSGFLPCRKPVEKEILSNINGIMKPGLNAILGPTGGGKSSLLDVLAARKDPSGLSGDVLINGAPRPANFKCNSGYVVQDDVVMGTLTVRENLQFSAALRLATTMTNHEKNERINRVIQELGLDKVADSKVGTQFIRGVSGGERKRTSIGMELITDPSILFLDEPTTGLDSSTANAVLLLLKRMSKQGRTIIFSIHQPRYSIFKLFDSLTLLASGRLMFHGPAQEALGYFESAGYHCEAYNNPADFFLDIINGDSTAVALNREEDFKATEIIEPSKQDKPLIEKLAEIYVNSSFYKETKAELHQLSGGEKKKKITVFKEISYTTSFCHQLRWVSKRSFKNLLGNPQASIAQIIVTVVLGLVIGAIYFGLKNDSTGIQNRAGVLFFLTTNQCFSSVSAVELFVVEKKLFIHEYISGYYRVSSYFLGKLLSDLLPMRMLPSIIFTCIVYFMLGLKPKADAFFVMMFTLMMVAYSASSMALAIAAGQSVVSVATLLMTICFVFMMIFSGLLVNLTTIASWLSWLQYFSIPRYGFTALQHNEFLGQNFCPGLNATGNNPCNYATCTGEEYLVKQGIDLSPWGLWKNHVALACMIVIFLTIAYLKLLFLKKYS
In short: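 Light output from HEK293/ABCG2/fLuc cells plated at 4×10^4 per well, treated with compounds, imaged every 5 min for ~1 h. Values are signal-to-background ratios versus solvent control at 40 min, indicating ABCG2 inhibition. Dose range 0.001 μM-100 μM with 50 μg/mL D-luciferin for selected compounds.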

[2] = tested on: ABCG2-overexpressing NCI-H460/MX20 cells
[3] = molecular target: T1, ABCG2; assay: BODIPY-prazosin uptake assay (flow cytometry) in HEK293/ABCG2 cells; conditions: compound 20 μM
[4] = compound 1 μM with 15 μM MTX, two days
[5] = Table 2, HEK293/ABCG2/fLuc cells, compound approximately 17 μM, ~50 μg/mL D-luciferin, 40 min time point
[6] = Table 4, approximately 17 μM, 40 min time point

CC(=O)c1ccc2c(c1)N(CCCN(C)C)c1ccccc1S2 [acepromazine]
Fold (BLI enhancement), previously unknown compounds ([1]; human, 40 min, 17 μM): 6.2 fold
Fold (BLI enhancement, S/B ratio over control) ([1]; human, 40 min, 17 μM): 6.2 fold
MTX (mitoxantrone resensitization assay) ([2]; H460/MX20 cells with MTX): Y

CCCCCCCCCCCCOCCOCCOCCOCCO [brij, Brij 30]
resensitization of H460/MX20 cells to MTX ([2]; after two days of incubation (data not shown)): resensitize H460/MX20 cells to MTX significantly

CCN(CC)CCOc1ccc(C(=C(Cl)c2ccccc2)c2ccccc2)cc1 [clomiphene citrate]
Fold (BLI enhancement), previously unknown compounds ([1]; human, 40 min, 17 μM): 6.7 fold
Fold (BLI enhancement, S/B ratio over control) ([1]; human, 40 min, 17 μM): 6.7 fold
resensitization of H460/MX20 cells to MTX [2, 4]: showed resensitization of H460/MX20 cells to MTX

C[C@H]1O[C@@H](O[C@H]2[C@@H](O)C[C@H](O[C@H]3[C@@H](O)C[C@H](O[C@H]4CC[C@@]5(C)[C@H](CC[C@@H]6[C@@H]5CC[C@]5(C)[C@@H](C7=CC(=O)OC7)CC[C@]65O)C4)O[C@@H]3C)O[C@@H]2C)C[C@H](O)[C@@H]1O [digitoxin]
BLI signal enhancement at lower concentrations [1]: enhance BLI signal minimally
Fold (BLI enhancement), previously unknown compounds ([1]; human): 5.7 fold
Fold (BLI enhancement, S/B ratio over control) ([1]; human): 5.7 fold
reduction of survival rate of H460/MX20 cells [2]: did not reduce the survival rate of H460/MX20 cells significantly

CC(C)C(=O)Nc1ccc([N+](=O)[O-])c(C(F)(F)F)c1 [flutamide]
Fold (BLI enhancement), previously unknown compounds ([1]; human, 40 min, 17 μM): 6.1 fold
Fold (BLI enhancement, S/B ratio over control) ([1]; human, 40 min, 17 μM): 6.1 fold
MTX (mitoxantrone resensitization assay) ([2]; H460/MX20 cells with MTX): Y

CC(C)(C(=O)c1cccnc1)c1cccnc1 [metyrapone, 2-methyl-1,2-dipyridin-3-yl-propan-1-one]
Fold (BLI enhancement), previously unknown compounds ([1]; human, 40 min, 17 μM): 6.3 fold
Fold (BLI enhancement, S/B ratio over control) ([1]; human, 40 min, 17 μM): 6.3 fold
MTX (mitoxantrone resensitization assay) ([2]; H460/MX20 cells with MTX): Y

O=C(C1CCCCC1)N1CC(=O)N2CCc3ccccc3C2C1 (stereo not drawn) [praziquantel]
Fold (BLI enhancement, S/B ratio over control) ([1]; human, 40 min, 17 μM): 3.3 fold

CN1CCCN=C1/C=C/c1cccs1 [pyrantel]
Fold (BLI enhancement, S/B ratio over control) ([1]; human, 40 min, 17 μM): 3.9 fold

O=C1c2ccc(O)c(O)c2C(=O)c2c(O)ccc(O)c21 [quinalizarin]
Fold (BLI enhancement, S/B ratio over control) ([1]; human, 40 min, 17 μM): 3.0 fold

CC(=O)SCC(Cc1ccccc1)C(=O)NCC(=O)OCc1ccccc1 (stereo not drawn) [racecadotril]
Fold (BLI enhancement, S/B ratio over control) ([1]; human, 40 min, 17 μM): 2.0 fold

O=C(c1ccc(OCCN2CCCCC2)cc1)c1c(-c2ccc(O)cc2)sc2cc(O)ccc12 [raloxifene hydrochloride]
Fold (BLI enhancement), previously unknown compounds ([1]; human, 40 min, 17 μM): 5.4 fold
Fold (BLI enhancement, S/B ratio over control) ([1]; human, 40 min, 17 μM): 5.4 fold
MTX (mitoxantrone resensitization assay) ([2]; H460/MX20 cells with MTX): Y

COC(=O)[C@H]1[C@H]2C[C@@H]3c4[nH]c5cc(OC)ccc5c4CCN3C[C@H]2C[C@@H](OC(=O)c2cc(OC)c(OC)c(OC)c2)[C@@H]1OC [reserpine]
Fold (BLI enhancement), known compounds ([1]; human, 40 min, 17 μM): 5.4 fold
Fold (BLI enhancement, S/B ratio over control) ([1]; human, 40 min, 17 μM): 5.4 fold

C=C(C)[C@]12C[C@@H](C)[C@@]34O[C@](Cc5ccccc5)(O[C@@H]1[C@@H]3C=C(COC(=O)Cc1ccc(O)c(OC)c1)C[C@]1(O)C(=O)C(C)=C[C@@H]41)O2 [resiniferatoxin]
Fold (BLI enhancement, S/B ratio over control) [1, 5]: 4.2 fold

O=C(O)c1cc(O)c2c(c1)C(=O)c1cccc(O)c1C2=O [rhein]
Fold (BLI enhancement, S/B ratio over control) ([1]; human, 40 min, 17 μM): 3.1 fold

Cc1cc2nc3c(=O)[nH]c(=O)nc-3n(C[C@H](O)[C@H](O)[C@H](O)CO)c2cc1C [riboflavin]
Fold (BLI enhancement), known compounds ([1]; human, 40 min, 17 μM): 5.4 fold
Fold (BLI enhancement, S/B ratio over control) ([1]; human, 40 min, 17 μM): 5.4 fold
MTX (mitoxantrone resensitization assay) ([2]; H460/MX20 cells with MTX): Y

CC(C)c1nc(N(C)S(C)(=O)=O)nc(-c2ccc(F)cc2)c1/C=C/[C@@H](O)C[C@@H](O)CC(=O)O [rosuvastatin]
Fold (BLI enhancement, S/B ratio over control) ([1]; human, 40 min, 17 μM): 3.9 fold

C=C(C)[C@H]1Cc2c(ccc3c2O[C@@H]2COc4cc(OC)c(OC)cc4[C@@H]2C3=O)O1 [rotenone]
Fold (BLI enhancement), previously unknown compounds ([1]; human): 6.7 fold
Fold (BLI enhancement, S/B ratio over control) ([1]; human): 6.7 fold
MTX (mitoxantrone resensitization assay) [2]: Y
BP (BODIPY-prazosin dye uptake assay) ([3]; […] BODIPY-prazosin, 1 h): Y
BODIPY-prazosin assay result ([3]; flow cytometry): positive

O=C(Nc1ccccc1)c1ccccc1O [salicylanilide]
Fold (BLI enhancement, S/B ratio over control) [1, 5]: 2.2 fold

OCc1cc(C(O)CNCCCCCCOCCCCc2ccccc2)ccc1O (stereo not drawn) [salmeterol xinafoate]
Fold (BLI enhancement, S/B ratio over control) ([1]; human, 40 min, 17 μM): 2.4 fold

CC(C)(C)NC(=O)[C@@H]1C[C@@H]2CCCC[C@@H]2CN1C[C@@H](O)[C@H](Cc1ccccc1)NC(=O)[C@H](CC(N)=O)NC(=O)c1ccc2ccccc2n1 [saquinavir mesylate]
Fold (BLI enhancement, S/B ratio over control) ([1]; human, 40 min, 17 μM): 4.9 fold
fold (BLI enhancement), additional previously known ABCG2 inhibitors ([1]; human, 40 min, 17 μM): 4.9 fold

CCCc1nn(C)c2c(=O)[nH]c(-c3cc(S(=O)(=O)N4CCN(C)CC4)ccc3OCC)nc12 [sildenafil]
Fold (BLI enhancement), previously unknown compounds ([1]; human, 40 min, 17 μM): 6.6 fold
Fold (BLI enhancement, S/B ratio over control) ([1]; human, 40 min, 17 μM): 6.6 fold

CCC(C)(C)C(=O)O[C@H]1C[C@@H](C)C=C2C=C[C@H](C)[C@H](CC[C@@H]3C[C@@H](O)CC(=O)O3)[C@H]21 [simvastatin]
Fold (BLI enhancement, S/B ratio over control) ([1]; human, 40 min, 17 μM): 2.7 fold

C[C@]12Cc3c[nH]nc3C[C@@H]1CC[C@@H]1[C@@H]2CC[C@@]2(C)[C@H]1CC[C@]2(C)O [stanozolol]
Fold (BLI enhancement, S/B ratio over control) ([1]; human): 2.8 fold

COc1cc([S+](C)[O-])ccc1-c1nc2ncccc2[nH]1 (stereo not drawn) [sulmazole]
Fold (BLI enhancement, S/B ratio over control) ([1]; human, 40 min, 17 μM): 3.0 fold

CCCCCNC(=N)N/N=C/c1c[nH]c2ccc(OC)cc12 [tegaserod maleate]
Fold (BLI enhancement, S/B ratio over control) ([1]; human, 40 min, 17 μM): 3.1 fold

CCCc1nc2c(C)cc(-c3nc4ccccc4n3C)cc2n1Cc1ccc(-c2ccccc2C(=O)O)cc1 [telmisartan]
Fold (BLI enhancement, S/B ratio over control) ([1]; human, 40 min, 17 μM): 2.0 fold

CC(C)(C)c1ccc(C(O)CCCN2CCC(C(O)(c3ccccc3)c3ccccc3)CC2)cc1 (stereo not drawn) [terfenadine]
Fold (BLI enhancement, S/B ratio over control) ([1]; human, 40 min, 17 μM): 4.2 fold

CSc1ccc2c(c1)N(CCC1CCCCN1C)c1ccccc1S2 (stereo not drawn) [th oridaz ne]
Fold (BLI enhancement, S/B ratio over control) [1, 5]: 2.5 fold

Cc1ccc(C(=O)C(C)CN2CCCCC2)cc1 (stereo not drawn) [tolperisone hydrochloride]
Fold (BLI enhancement, S/B ratio over control) ([1]; human, 40 min, 17 μM): 2.1 fold

CN(C)CCOc1ccc(/C(=C(/CCCl)c2ccccc2)c2ccccc2)cc1 [toremifene]
Fold (BLI enhancement, S/B ratio over control) ([1]; human, 40 min, 17 μM): 2.3 fold

CCCCNc1c(C(=O)OCC)c(C)nc2c1cnn2CC [tracazolate]
Fold (BLI enhancement), previously unknown compounds ([1]; human, 40 min, 17 μM): 20 fold
Fold (BLI enhancement, S/B ratio over control) ([1]; human, 40 min, 17 μM): 20.0 fold
MTX (mitoxantrone resensitization assay) ([2]; H460/MX20 cells with MTX): Y

CCCc1nc(C)c2c(=O)[nH]c(-c3cc(S(=O)(=O)N4CCN(CC)CC4)ccc3OCC)nn12 [vardenafil]
Fold (BLI enhancement, S/B ratio over control) ([1]; human, 40 min, 17 μM): 3.3 fold

acetophenazine maleate
MTX (mitoxantrone resensitization assay) ([2]; H460/MX20 cells with MTX): Y

antimycin
Fold (BLI enhancement, S/B ratio over control) [1, 5]: 2.3 fold

estrone hemisuccinate
Fold (BLI enhancement, S/B ratio over control) [1, 5]: 5.4 fold
Fold (BLI enhancement), previously unknown compounds [1, 6]: 5.4 fold

gramicidin
Fold (BLI enhancement, S/B ratio over control) [1, 5]: 6.9 fold
Fold (BLI enhancement), previously unknown compounds [1, 6]: 6.9 fold
resensitization of H460/MX20 cells to MTX [2, 4]: showed resensitization of H460/MX20 cells to MTX
cytotoxicity in the MTX resensitization assay ([2]; compound 20 μM, H460/MX20 cells): too cytotoxic to be tested

hesperidin methyl chalcone
Fold (BLI enhancement, S/B ratio over control) [1, 5]: 2.1 fold

ivermect n
Fold (BLI enhancement, S/B ratio over control) [1, 5]: 4.3 fold
